Measured values: the NIST ThermoML archive (doi:10.1016/j.jct.2012.02.033)
± gives the expanded uncertainty stated by the source.

How the values were obtained:
[1] = xn = mol fraction of the nth substance listed; details: 101.3 kPa, Liquid, Vibrating tube method
[2] = 101.33 kPa, Liquid, Vibrating tube method

CCNC=O [N-ethylformamide] + CCOC(C)=O
mass density [kg/m3], [1]
Details	x1 = 0.1322	x1 = 0.2514	x1 = 0.3559	x1 = 0.4653	x1 = 0.564	x1 = 0.671	x1 = 0.7544	x1 = 0.8376	x1 = 0.9223
293.15 K	907.89 ± 0.16	914.13 ± 0.16	919.39 ± 0.17	924.91 ± 0.17	929.7 ± 0.18	935.01 ± 0.2	939.27 ± 0.2	943.3 ± 0.22	947.63 ± 0.23
298.15 K	901.99 ± 0.16	908.51 ± 0.16	914.06 ± 0.17	919.68 ± 0.18	924.66 ± 0.18	930.12 ± 0.2	934.56 ± 0.21	938.85 ± 0.22	943.28 ± 0.23
303.15 K	896.06 ± 0.16	902.84 ± 0.16	908.62 ± 0.17	914.51 ± 0.18	919.65 ± 0.19	925.33 ± 0.2	929.93 ± 0.21	934.35 ± 0.22	938.94 ± 0.23
308.15 K	890.09 ± 0.16	897.16 ± 0.17	903.23 ± 0.17	909.29 ± 0.18	914.62 ± 0.19	920.5 ± 0.2	925.29 ± 0.21	929.86 ± 0.22	934.56 ± 0.23
313.15 K	884.03 ± 0.16	891.14 ± 0.17	897.65 ± 0.17	903.98 ± 0.18	909.53 ± 0.19	915.67 ± 0.2	920.55 ± 0.21	925.31 ± 0.22	930.15 ± 0.23

CCNC=O [N-ethylformamide] + CCC(C)=O
mass density [kg/m3], [1]
Details	x1 = 0.1242	x1 = 0.2302	x1 = 0.3384	x1 = 0.4407	x1 = 0.5398	x1 = 0.6369	x1 = 0.7317	x1 = 0.8186	x1 = 0.91
293.15 K	826.16 ± 0.18	840.95 ± 0.19	856.12 ± 0.19	870.55 ± 0.2	884.78 ± 0.2	898.71 ± 0.21	912.21 ± 0.22	925 ± 0.23	938.61 ± 0.24
298.15 K	820.91 ± 0.19	836.01 ± 0.19	851.11 ± 0.19	865.71 ± 0.2	880.07 ± 0.2	894.02 ± 0.21	907.71 ± 0.22	920.61 ± 0.23	934.41 ± 0.24
303.15 K	815.8 ± 0.19	830.97 ± 0.19	846.25 ± 0.19	860.93 ± 0.2	875.4 ± 0.2	889.48 ± 0.21	903.31 ± 0.22	916.28 ± 0.23	930.12 ± 0.24
308.15 K	810.54 ± 0.19	825.9 ± 0.19	841.32 ± 0.19	856.14 ± 0.2	870.71 ± 0.21	884.87 ± 0.21	898.84 ± 0.22	911.88 ± 0.23	925.83 ± 0.24
313.15 K	805.22 ± 0.19	820.74 ± 0.19	836.31 ± 0.2	851.26 ± 0.2	865.95 ± 0.21	880.2 ± 0.21	894.3 ± 0.22	907.42 ± 0.23	921.48 ± 0.24

CCOC(C)=O [ethyl acetate]
[2]
Details	mass density [kg/m3]
293.15 K	900.26 ± 0.15
298.15 K	894.14 ± 0.15
303.15 K	887.85 ± 0.15
308.15 K	881.52 ± 0.15
313.15 K	875.14 ± 0.16

C1CCOC1 [tetrahydrofuran]
[2]
Details	mass density [kg/m3]
293.15 K	888.73 ± 0.14
298.15 K	883.24 ± 0.15
303.15 K	877.6 ± 0.15
308.15 K	872.02 ± 0.15
313.15 K	866.23 ± 0.15

CCC(C)=O [butanone]
[2]
Details	mass density [kg/m3]
293.15 K	808.64 ± 0.16
298.15 K	803.24 ± 0.17
303.15 K	797.88 ± 0.17
308.15 K	792.45 ± 0.17
313.15 K	786.94 ± 0.17

CCNC=O [N-ethylformamide]
[2]
Details	mass density [kg/m3]
293.15 K	951.59 ± 0.24
298.15 K	947.48 ± 0.24
303.15 K	943.29 ± 0.24
308.15 K	939.04 ± 0.24
313.15 K	934.78 ± 0.24

CCNC=O [N-ethylformamide] + C1CCOC1
mass density [kg/m3], [1]
Details	x1 = 0.1142	x1 = 0.2142	x1 = 0.3179	x1 = 0.4258	x1 = 0.5219	x1 = 0.6177	x1 = 0.7146	x1 = 0.8111	x1 = 0.9121
293.15 K	896.3 ± 0.15	903.1 ± 0.16	910.05 ± 0.16	917.17 ± 0.17	923.35 ± 0.18	929.34 ± 0.19	935.26 ± 0.2	940.88 ± 0.21	946.8 ± 0.23
298.15 K	890.99 ± 0.15	897.92 ± 0.16	905.07 ± 0.16	912.38 ± 0.17	918.66 ± 0.18	924.77 ± 0.19	930.78 ± 0.2	936.53 ± 0.21	942.58 ± 0.23
303.15 K	885.68 ± 0.16	892.77 ± 0.16	900.1 ± 0.17	907.54 ± 0.17	913.98 ± 0.18	920.19 ± 0.19	926.31 ± 0.2	932.18 ± 0.21	938.31 ± 0.23
308.15 K	880.28 ± 0.16	887.57 ± 0.16	895.02 ± 0.17	902.62 ± 0.18	909.25 ± 0.18	915.53 ± 0.19	921.81 ± 0.2	927.84 ± 0.21	934.01 ± 0.23
313.15 K	874.84 ± 0.16	882.2 ± 0.16	889.89 ± 0.17	897.66 ± 0.18	904.45 ± 0.18	910.99 ± 0.19	917.2 ± 0.2	923.35 ± 0.22	929.64 ± 0.23
